Assay [1] has as its system p-SRC and PD-L1 expression in H460 and A549 cells. Kind of assay: Western blot / RT-PCR of p-SRC and PD-L1 expression in NSCLC cell lines. In kind it is cell-based, human.
Method: Cells were treated with the indicated concentrations and washed twice with cold PBS. Whole cell extracts were collected in RIPA lysis buffer (Santa Cruz Biotechnology, Germany), and protein concentration of the lysates was measured using a BCA Protein Assay Kit (ThermoFisher, USA). The protein samples were electrophoresed through a 10% SDS-PAGE gel and transferred to a polyvinylidene difluoride (PVDF) membrane (Roche, USA). After blocking, membranes were probed with primary antibodies (1:1000) against SRC, p-SRC, PD-L1, GAPDH, 0-tubulin (Cell Signaling Technology, USA) followed by washing and incubation with a secondary antibody (1:5000) conjugated to horseradish peroxidase (Santa Cruz Biotechnology, USA). Protein bands were visualized by applying a chemiluminescent reagent (Pierce ECL kit, Thermo Fisher Scientific, USA) and protein level were quantified by Image Lab (Bio-Rad Laboratory, USA).
Total cellular RNA was extracted by Trizol (Invitrogen, USA) for mRNA analysis. RNA was reverse-transcribed to cDNA profile through using the Transcriptor First Strand cDNA Synthesis kit (Roche Applied Science, USA) and then Real time PCR reactions were performed using the FastStart SYBR Green Master (ROX) reagent (Roche Applied Science, USA) according to the manufacturer's instructions. […]
Assay [2] has as its system Y253H/T315I orthotopic tumor model. Nature of the assay: In vivo efficacy, Y253H/T315I orthotopic tumor model. Further details: species or system mouse. The note with it: ABL001 60 mg/kg, Ponatinib 20 mg/kg, HQP1351 20 mg/kg. The procedure: In vivo efficacy was evaluated using the syngeneic mouse model derived from BaF3 cells with T315I and/or compound mutations. Tumor models were established by intravenously injecting tumor cells (1×10^5/mouse) into the caudal vein under sterile conditions. Mice were randomized into control and treatment groups with 8-10 mice per group and start the treatment from the second day post inoculation. The animal body weights were measured twice a week. The antitumor activity curves of test articles were plotted with the treatment time (day) on the X-axis, and corresponding survival rate on the Y-axis. A Log-rank (Mental-cox) test was employed to analyze the statistical significance of any difference between the treatment group and the control group. Prism version 7 (GraphPad Software Inc., San Diego, CA) was used for all statistical analysis and for graphic presentation.

With `Cc1ccc(C(=O)Nc2ccc(CN3CCN(C)CC3)c(C(F)(F)F)c2)cc1C#Cc1cnc2[nH]ncc2c1` [HQP1351, 3-(2-(1H-pyrazolo[3,4-b]pyridin-5-yl)ethynyl)-4-methyl-N-(4-((4-methylpiperazin-1-yl)methyl)-3-(trifluoromethyl)phenyl)-benzamide], the “PD-L1 and p-SRC levels at different time points” value in assay [1] (2 μM HQP-1351) was “time-dependent suppression of PD-L1 and p-SRC levels”. Further, in assay [1] (NSCLC cell lines, 24 h, Western blot), the “PD-L1 expression and p-SRC phosphorylation, differing concentrations” value is listed as “decreased PD-L1 expression as well as p-SRC phosphorylation in a concentration-dependent manner”. For the same molecule, in assay [2], the Median survival is 18.5, the “Survival prolongation (%)” value was 8.82% and the “Survive/Total @ 24” value was 0/8.

The values above are taken from US20230404998A1, “Combination Therapies for Treating Cancer” (ASCENTAGE PHARMA (SUZHOU) CO., LTD., priority 2020, published 2023).
